Measured values: patent publication US10253002B2, “Compounds and methods of treating infections” (Neoculi Pty Ltd., priority 2013, dated 2019)
Values after ≈ are worked out from the molar mass of the structure shown.

Legend:
[1] = test system: S. aureus ATCC 29213; experiment: MIC testing (CLSI M07-A8, MHB II), Example 2; format: cell-based; conditions: ATCC29213, Staphylococcus aureus ATCC 29213
Description: The medium employed for the MIC assay was Mueller Hinton II Broth (MHB II-Becton Dickinson, Sparks, Md.; Cat No 212322; Lot 9044411). S. aureus ATCC 29213 served as the quality control strain, and linezolid was utilized as the quality control antibiotic to validate the assay.

[2] = test system: S. aureus ATCC 29213; conditions: Staphylococcus aureus ATCC 29213; CLSI-established; cited from earlier work
[3] = test system: protein synthesis in S. aureus ATCC 29213; experiment: Macromolecular synthesis assay: protein synthesis ([3H] leucine); format: cell-based, Staphylococcus aureus; conditions: 8 fold the MIC (2 μg/mL)
Description: (§1) Cells were grown at 35° C. overnight on Trypticase Soy agar. A colony from the plate was used to inoculate 10 ml of Mueller Hinton broth II (MHBII), and the culture was grown to early exponential growth phase (OD600==0.2 to 0.3) while incubating in a shaker at 35° C. and 200 rpm.
When cells reached early exponential phase, 100 μL of culture was added to triplicate wells containing various concentrations of test compound or control antibiotics (5 μL) at 20× the final concentration in 100% DMSO. A 5% DMSO treated culture served as the “no drug” control for all experiments. Cells were added in MHBII at 105% to account for the volume of drug added to each reaction or in M9 minimal medium for protein synthesis reactions. Following 15 min incubation at room temperature, either [^3H] thymidine (DNA synthesis), [^3H] uridine (RNA synthesis) or [^3H] leucine (protein synthesis) was added at 0.5-1.0 μCi per reaction, depending on the experiment. Reactions were allowed to proceed at room temperature for 15-30 min and then stopped by adding 12 μL of cold 5% trichloroacetic acid (TCA) or 5% TCA/2% casamino acids (protein synthesis only). […] After washing three times with 5 ml of cold 5% TCA, the filters were rinsed two times with 5 mL 100% ethanol, allowed to dry, and then counted using a Beckman LS3801 liquid scintillation counter.

[4] = Bioassay ranking of the analogues tested; conditions: M + R (MRSA and VRE combined)
[5] = test system: MRSA; experiment: Broth microdilution MIC, Example 7 (NCL812 and analogues); format: cell-based, Staphylococcus aureus
Outline: (§2)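 MICs in μg/ml were read as growth inhibition by eye, checked at 600 nm absorbance against drug-free wells, following CLSI broth microdilution. Strains: two MRSA, two VRE; duplicates, repeated once more when results diverged beyond one dilution step.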

[6] = test system: Staphylococcus aureus; experiment: Mouse skin wound infection model, topical treatment; format: in vivo, mice; conditions: 14 treatments
Description: Preliminary studies prior to the conduct of the current study established a new method of skin infection arising from a detailed study of the models mentioned above. Briefly, study mice are anaesthetised, a patch of dorsal skin is clipped to reveal the skin and a circular area of skin is removed with a hand held punch, leaving a wound on the dorsum with a central cavity. The wound is infected with a known number of the challenge organism. Approximately four to six hours after infection, the wound is either treated topically with a vehicle formulation or an active formulation. The infected skin wound is retreated every 12 hours for a total of 14 treatments. Mice are humanely euthanased, the area of the original infected wound is dissected and removed and its bacterial content quantified by standard microbiologic tests. In this way, the change in bacterial concentration due to treatment with the active formulation can be readily determined by examining the reduction in bacterial burden compared with the vehicle control. Fresh cultures of bacteria (Staphylococcus aureus) were grown on Sheep Blood Agar at 37° C. for 16-18 hours. A few typical colonies were selected and suspended in 10 ml of Tryptic Soy Broth and incubated overnight in a shaking incubator (240 rpm) at 37° C. The overnight suspension was vortexed and diluted (1:100) in fresh Tryptic soy broth (100 μl [0.1 ml] in 9.9 ml broth). The fresh suspension was incubated for 3 hours in a shaking incubator (as above) in order to obtain mid-logarithmic phase bacteria. Bacteria were pelleted through centrifugation at 7,500 rpm for 10 mins. Broth supernatant was removed and bacteria suspended in 10 ml Phosphate Buffered Saline (PBS). These steps were repeated a further two times. The density of the suspension was checked by measuring absorbance at 600 nm, using a spectrophotometer with saline as a blank, to confirm the target density at a reading of approximately 0.100, consistent with a bacterial density of 2.5×10^7 CFU/ml. The suspension was placed into a rack placed into a lockable transport box with an ice brick to maintain refrigeration during transport, followed by storage in cool room upon arrival at the mouse skin infection laboratory. Final suspension was mixed thoroughly before inoculating the skin wounds created in mice. […] Eyes of each anaesthetised mouse were covered with veterinary eye lubricant in order to prevent corneal dehydration. Each mouse removed from induction chamber and placed onto surgical area, in front of individual aesthetic nose cone. While under anaesthesia each mouse was monitored for assessment of depth of anaesthesia (response to pain, blink reflex, skeletal muscle tone) and respiratory and cardiac function. Back skin hair was shaved from surgical area with mechanical clippers. […] Once the iodine solution was dry, a subcutaneous injection of the nonsteroidal anti-inflammatory agent meloxicam was administered. Dorsal skin was pinched gently to allow creation of a circular full-thickness wound using ear punch/biopsy punch. […] Once the bacterial suspension was dry, mice were placed into individual recovery boxes labelled with the mouse number. The time of inoculation was recorded. Initial body weights of each mouse were recorded on the appropriate score sheet. Mice recovered to full consciousness within 5 minutes. Recovered mice were returned to individual housing and monitored hourly for post-surgical or anaesthetic complications. […] Each ointment container was weighted prior to administration and the weight recorded. Each mouse was carefully restrained. […] The weight of the ointment container post-administration was recorded. […] At the end of the 7 day skin wound assessment period, all test mice were euthanased prior to wound collection for post mortem examination. The skin wound was dissected from the dorsum of each mouse. The sample was placed in a sample tube and weighed before 1 ml PBS and sterile tissue homogenisation beads were added. […]

[7] = Release from Formulation B, Franz diffusion cells; format: physicochemical; conditions: absolute ethanol receptor, 32±1° C., up to 24 hours
Description: Franz diffusion cells were utilized to quantify the release rate of NCL 812 and NCL099 from its topical formulations. Five milliliters of absolute ethanol, which was chosen as the desired release medium, was loaded into the receptor chamber. Temperature of the receptor fluid was kept constant, at 32±1° C. using a water jacket. Acetyl cellulose membranes, with pore size of 0.45 μm (Pall Corporation) was selected and placed between donor and receptor chamber. Followed by that, a number of test samples (Formulation B) was loaded into the donor chamber. One milliliter of receptor fluid was collected at regular time intervals of 0.25, 0.50, 0.75, 1, 2, 3, 4, 5, 6, 7, 8 and 24 hours through the sampling port. One milliliter of fresh absolute ethanol was immediately returned to the receptor chamber. UV-HPLC was utilized to analyse the content of the receptor fluids attained.

[8] = test system: Escherichia coli; experiment: Broth microdilution MIC, Example 7 (NCL812 and analogues); format: cell-based; conditions: E. coli; 24 hours; duplicate lines per compound
[9] = test system: VRE; experiment: as above; format: cell-based, Enterococcus spp.
Outline: as §2

[10] = test system: Pseudomonas aeruginosa; experiment: as above; format: cell-based; conditions: P. aeruginosa; 24 hours; duplicate lines per compound
[11] = test system: lipid synthesis in S. aureus ATCC 29213; experiment: Macromolecular synthesis assay: lipid synthesis ([3H] glycerol); format: cell-based, Staphylococcus aureus
Description: as §1
Bacterial cells were grown to early exponential growth phase in MHBII broth and added to 1.5 mL eppendorf tubes (in triplicate) containing various concentrations of test compound or control antibiotics as described above. Following a 5 min incubation at room temperature, [^3H] glycerol was added at 0.5 μCi per reaction.
Reactions were allowed to proceed at room temperature for 15 min and then stopped through the addition of 375 μL chloroform/methanol (1:2) followed by vortexing for 20 seconds after each addition. Chloroform (125 μL) was then added to each reaction, vortexed, followed by the addition of 125 μL dH2O and vortexing. Reactions were centrifuged at 13,000 rpm for 10 min, and then 150 μL of the organic phase was transferred to a scintillation vial and allowed to dry in a fume hood for at least 1 hr. Samples were then counted via liquid scintillation counting.

[12] = test system: MRSA; conditions: within an hour of exposure to a concentration equivalent to the Cmax; McKay et al. (2009); cited from earlier work
[13] = test system: ATP release from S. aureus ATCC 29213; experiment: ATP release assay (CellTiter-Glo); format: cell-based, Staphylococcus aureus; conditions: positive control; 8 fold the MIC (256 μg/mL); 30 min exposure
Description: The CellTiter-Glo Luminescent Cell Viability Assay (Promega) was utilized to measure the leakage of ATP from bacteria. […] The negative control received 2% DMSO, which represented the final DMSO concentration in each assay. After a 30 min exposure to drug, cells were sedimented by centrifugation and the supernatant was analyzed for the presence of ATP. Results were expressed as ATP concentration released to the medium (μM).

CC(=O)NC[C@H]1CN(c2ccc(N3CCOCC3)c(F)c2)C(=O)O1 [Linezolid]
MIC [1]: 4 µg/mL (≈ 11.9 µM) | Quality control range for linezolid (MIC) [2]: 1 to 4 µg/mL | inhibition of protein synthesis [3]: approximately 61%

CC(C)(C)c1ccc(C=NNC(=N)NN=Cc2ccc(C(C)(C)C)cc2)cc1.Cl [NCL099]
M + R [4]: 7 µg/mL | activity against MRSA among analogues ([5]; MIC testing, two MRSA strains): greatest activity | MIC (μg/ml) at 24 hours, MRSA 1 ([5]; MRSA 1, 24 hours, duplicate lines per compound): 8 µg/mL | MIC (μg/ml) at 24 hours, MRSA 2 ([5]; MRSA 2, 24 hours, duplicate lines per compound): 4 µg/mL | MRSA ([5]; bioassay ranking, MRSA): 6 µg/mL | mean colony count per g of tissue, log10 ([6]; mice, Formulation B 20 mg/g topically every 12 hours, vehicle 6.77): 3.12 log10 | mean colony count per g of tissue ([6]; mice, Formulation B 20 mg/g topically every 12 hours, vehicle 5,888,436): 1,318 | % reduction (of colony forming units per gram of tissue versus vehicle) ([6]; mouse skin wound infected with Staphylococcus aureus, topical ointment (Formulation B, 20 mg/g) every 12 hours, end of 7 day period, relative to vehicle group): 99.98% | Log10 (CFU/g): colony forming units per gram of tissue ([6]; mouse skin wound infected with Staphylococcus aureus, topical ointment (Formulation B, 20 mg/g) every 12 hours, wound tissue at end of 7 day period, group mean): 3.12 Log10 (CFU/g) | release profile from Formulation B [7]: acceptable release profile | MIC (μg/ml) at 24 hours, E. coli [8]: >128 µg/mL | activity against VRE among analogues ([9]; MIC testing, two VRE strains): greatest activity | MIC (μg/ml) at 24 hours, VRE 1 ([9]; VRE 1, 24 hours, duplicate lines per compound): 8 µg/mL | MIC (μg/ml) at 24 hours, VRE 2 ([9]; VRE 2, 24 hours, duplicate lines per compound): 8 µg/mL | VRE ([9]; bioassay ranking, VRE): 8 µg/mL | MIC (μg/ml) at 24 hours, P. aeruginosa [10]: >128 µg/mL

C/C=C/C/C=C/CCC(=O)[C@H]1O[C@H]1C(N)=O [cerulenin, Cerulenin, reference compound]
inhibition of lipid synthesis [11]: 72%

CN[C@H](CC(C)C)C(=O)N[C@H]1C(=O)N[C@@H](CC(N)=O)C(=O)N[C@H]2C(=O)N[C@H]3C(=O)N[C@H](C(=O)N[C@H](C(=O)O)c4cc(O)cc(O)c4-c4cc3ccc4O)[C@H](O[C@H]3C[C@](C)(N)[C@@H](O)[C@H](C)O3)c3ccc(c(Cl)c3)Oc3cc2cc(c3O[C@@H]2O[C@H](CO)[C@@H](O)[C@H](O)[C@H]2O[C@H]2C[C@](C)(NCc3ccc(-c4ccc(Cl)cc4)cc3)[C@@H](O)[C@H](C)O2)Oc2ccc(cc2Cl)[C@H]1O [oritavancin]
reduction in viable count [12]: 3 log10

Polymyxin B [reference compound]
maximal ATP release [13]: approximately 0.34 μM
